Measured values from patent US20040033517A1, “Compositions and methods relating to endothelial cell signaling using the protease activated receptor (PAR1)” (priority 2002, published 2004).
Read-outs that look alike come from different tables or passages of the source. Ends that are not written are not given here.

Tested on: human umbilical vein endothelial cells HUVEC-C
Type: cell-based
From the text: Microarray Analysis. […] Total RNA was isolated followed by reverse transcription. Purified double stranded cDNA was in vitro transcribed in the presence of biotinylated dUTP and dCTP, fragmented cRNA was hybridized to the HG-U95Av2 array (Affymetrix, Santa Clara, Calif.), followed by staining with streptavidin-phycoerythrin. Arrays were scanned and analyzed using GeneChip3.1 software. […] An average fold-induction for the three independent experiments was obtained by calculating the means of the logarithm of the individual fold-increases for each agonist.

[1] = HUVEC-C, 90 min, genes represented in FIG. 2 A-C
[2] = HUVEC-C, 90 min, higher variability, PAR1 enhanced (<1.3 fold with PAR2 agonist)
[3] = HUVEC-C, 90 min, higher variability, PAR2 enhanced (<1.3 fold with PAR1 agonist)
[4] = HUVEC-C, 90 min, higher variability, genes not induced by APC (<1.3 fold with APC)

SLIGRL [PAR2, SLIGRL]
Average fold induction, BIRC3 U45878 HUMAN INHIBITOR OF APOPTOSIS PROTEIN (IAP) 1: 1.41 fold | Average fold induction, NAB1 AF045451 NGFIA-BINDING PROTEIN: 1.38 fold | Average Induction, A1288757 qm11h01.x1 Homo sapiens cDNA [1]: 2.3 fold | Average Induction, A1670788 tz10c02.x1 Homo sapiens cDNA [1]: 1.4 fold | Average Induction, A1985272 ws06b05.x1 Homo sapiens cDNA [1]: 1.4 fold | Average Induction, A8022718 Homo sapiens m.RNA for DEPP (decidual protein induced by progesterone) [1]: 2.0 fold | Average Induction, AB004066 Homo sapiens mRNA for DEC1 [1]: 1.3 fold | Average Induction, AB014569 Homo sapiens mRNA for K1AA0669 protein [1]: 2.0 fold | Average Induction, AF017786 Homo sapiens phosphatidic acid phosphohydrolase homolog (Dri42) [1]: 1.6 fold | Average Induction, AF022375 Homo sapiens vascular endothelial growth factor mRNA [1]: 1.3 fold | Average Induction, AF039843 Homo sapiens Sprouty 2 (SPRY2) mRNA [1]: 1.8 fold | Average Induction, AF045451 Homo sapiens transcriptional regulatory protein p54 [1]: 1.4 fold | Average Induction, AF050110 Homo sapiens TGFb inducible early protein and early growth response protein alpha genes [1]: 1.4 fold | Average Induction, AF054182 Homo sapiens mitochondrial processing peptidase beta-subunit mRNA [1]: 1.3 fold | Average Induction, AF068197 Homo sapiens BCE-1 mRNA [1]: 1.8 fold | Average Induction, AF078077 Homo sapiens growth arrest and DNA-damage-inducible protein GADD45beta [1]: 1.3 fold | Average Induction, AJ005821 Homo sapiens mRNA for X-like 1 protein [1]: 1.6 fold | Average Induction, AL023584 Human DNA sequence from clone 67K17 on chromosome 6q24.1-24.3. [1]: 2.0 fold | Average Induction, AL031432 Human DNA sequence from clone 465N24 on chromosome 1p35.1-36.13. [1]: 2.6 fold | Average Induction, AL050078 Homo sapiens mRNA; cDNA DKFZp566G0746 [1]: 1.6 fold | Average Induction, AL096858 Novel human gene mapping to chomosome 1 [1]: 1.5 fold | Average Induction, Cluster Incl M22489 Human bone morphogenetic protein 2A (BMP-2A) [1]: 2.9 fold | Average Induction, Cluster Incl U12767 Human mitogen induced nuclear orphan receptor (MINOR) [1]: 3.4 fold | Average Induction, D15050 Human mRNA for transcription factor AREB6 [1]: 1.7 fold | Average Induction, D50917 Human mRNA for KIAA0127 gene [1]: 1.3 fold | Average Induction, D78579 Homo sapiens mRNA for neuron derived orphan receptor [1]: 1.4 fold | Average Induction, D86181 Homo sapiens DNA for galactocerebrosidase [1]: 1.5 fold | Average Induction, Guanine Nucleotide Exchange Factor 2 [1]: 1.4 fold | Average Induction, J02931 Human placental tissue factor (two forms) mRNA [1]: 2.7 fold | Average Induction, J04076 Human early growth response 2 protein (EGR2) mRNA [1]: 2.0 fold | Average Induction, J04111 Human c-jun proto oncogene (JUN) [1]: 1.5 fold | Average Induction, L05072 Homo sapiens interferon regulatory factor 1 gene [1]: 2.0 fold | Average Induction, L19871 Human activating transcription factor 3 (ATF3) [1]: 2.6 fold | Average Induction, L43821 Homo sapiens enhancer of filamentation (HEF1) mRNA [1]: 1.2 fold | Average Induction, M22489/FEATURE Human bone morphogenetic protein 2A (BMP-2A) [1]: 3.2 fold | Average Induction, M26683 Human interferon gamma treatment inducible mRNA [1]: 1.0 fold | Average Induction, M28211 Homo sapiens GTP-binding protein (RAB4) mRNA [1]: 2.7 fold | Average Induction, M28225 Human JE gene encoding a monocyte secretory protein [= MCP-1] [1]: 1.1 fold | Average Induction, M29039 Human transactivator (jun-B) gene [1]: 2.8 fold | Average Induction, M30474 Human kidney gamma-glutamyl transpeptidase type II mRNA [1]: 2.1 fold | Average Induction, M31516 Human decay-accelerating factor mRNA [1]: 1.9 fold | Average Induction, M36820 Human cytokine (GRO-beta) mRNA [1]: 1.6 fold | Average Induction, M59465 Human tumor necrosis factor alpha inducible protein A20 mRNA [1]: 1.3 fold | Average Induction, M60278 Human heparin-binding EGF-like growth factor mRNA [1]: 3.9 fold | Average Induction, M60721 Human homeobox gene [1]: 3.7 fold | Average Induction, M69043 Homo sapiens MAD-3 mRNA encoding 1kB-like activity [1]: 1.4 fold | Average Induction, M92843 H.sapiens zinc finger transcriptional regulator mRNA [1]: 3.4 fold | Average Induction, S81439 EGR alpha=early growth response gene alpha [1]: 1.4 fold | Average Induction, S81914 IEX-1=radiation-inducible immediate-early gene [1]: 1.2 fold | Average Induction, U04636 Human cyclooxygenase-2 (hCox-2) gene [1]: 1.3 fold | Average Induction, U07802 Human Tis1 1d gene [1]: 1.6 fold | Average Induction, U08015 Human NF-ATc mRNA [1]: 2.0 fold | Average Induction, U12767/FEATURE Human mitogen induced nuclear orphan receptor (MINOR) [1]: 3.3 fold | Average Induction, U15932 Human dual-specificity protein phosphatase [1]: 3.3 fold | Average Induction, U25997 Homo sapiens stanniocalcin precursor (STC) mRNA [1]: 1.4 fold | Average Induction, U43142 Human vascular endothelial growth factor related protein VRP [1]: 1.9 fold | Average Induction, U59863 Human TRAF-interacting protein I-TRAF mRNA [1]: 1.1 fold | Average Induction, U75697 Human transcription regulator RPD3-2B mRNA [1]: 2.6 fold | Average Induction, U79259 Human clone 23945 mRNA [1]: 1.7 fold | Average Induction, U81607 Homo sapiens gravin mRNA [1]: 1.3 fold | Average Induction, W27545 32c4 Homo sapiens cDNA [1]: 1.2 fold | Average Induction, X51345 Human jun-B mRNA for JUN-B protein [1]: 1.8 fold | Average Induction, X63741 H.sapiens pilot mRNA [1]: 3.0 fold | Average Induction, X68277 H.sapiens CL 100 mRNA for protein tyrosine phosphatase [1]: 2.8 fold | Average Induction, X75918 H.sapiens mRNA for NOT [1]: 3.3 fold | Average Induction, X89066 H.sapiens mRNA for TRPC1 protein [1]: 2.2 fold | Average Induction, X94216 H.sapiens mRNA for VEGF-C protein [1]: 2.1 fold | Average Induction, Y00630 Human mRNA for Arg-Serpin (plasminogen activator-inhibitor 2, PAI-2) [1]: 1.7 fold | Average Induction, Z25821 H.sapiens gene for mitochondrial dodecenoyl-CoA delta-isomerase [1]: 1.7 fold | Average Induction, Z48054 H.sapiens mRNA for peroxisomal targeting signal 1 (SKL type) receptor [1]: 1.9 fold | Average Induction, L13740 Human TR3 orphan receptor mRNA (HUVEC-C, 90 min, genes represented in FIG. 2 A-C, first probe set): 5.4 fold | Average Induction, L13740 Human TR3 orphan receptor mRNA (HUVEC-C, 90 min, genes represented in FIG. 2 A-C, second probe set): 5.4 fold | Average Induction, A1186701 qe82d12.x1 Homo sapiens cDNA [2]: 1.1 fold | Average Induction, A1953789 wx69d10.x1 Homo sapiens cDNA [2]: 0.9 fold | Average Induction, AF024710 Homo sapiens vascular endothelial growth factor (VEGF) [2]: 1.1 fold | Average Induction, AL035297 H.sapiens gene from PAC 747L4 [2]: 1.0 fold | Average Induction, M22299 Human T-plastin polypeptide mRNA [2]: 1.2 fold | Average Induction, U35735 Human RACH1 (RACH1) mRNA [2]: 1.1 fold | Average Induction, U87460 Human putative endothelin receptor type B-like protein mRNA [2]: 0.9 fold | Average Induction, A1038821 ox96d03.x1 Homo sapiens cDNA [3]: 2.0 fold | Average Induction, AC004475 Homo sapiens chromosome 19, cosmid F23858 [3]: 1.4 fold | Average Induction, AL049354 Homo sapiens mRNA; cDNA DKFZp566E183 [3]: 1.3 fold | Average Induction, L38696 Homo sapiens autoantigen p542 mRNA [3]: 1.3 fold | Average Induction, U27655 Human RGP3 mRNA [3]: 1.5 fold | Average Induction, U53831 Homo sapiens interferon regulatory factor 7B [3]: 1.5 fold | Average Induction, U58334 Human Bcl2, p53 binding protein Bbp/53BP2 (BBP/53BP2) mRNA [3]: 1.5 fold | Average Induction, U65093 Human msg1-related gene 1 (mrg1) mRNA [3]: 1.7 fold | Average Induction, W26851 17b12 Homo sapiens cDNA [3]: 1.6 fold | Average Induction, Y13115 Homo sapiens mRNA for serine/threonine protein kinase SAK [3]: 1.6 fold | Average Induction, Z25821 H.sapiens gene for mitochondrial dodecenoyl-CoA delta-isomerase [3]: 1.7 fold | Average Induction, AB028069 Homo sapiens mRNA for activator of S phase Kinase [4]: 2.0 fold | Average Induction, D38537 Human mRNA for protoporphyrinogen oxidase [4]: 1.6 fold | Average Induction, M83667 Human NF-IL6-beta protein [4]: 1.3 fold | Average Induction, U78082 Human RNA polymerase transcriptional regulation mediator (h-MED6) mRNA [4]: 1.3 fold | Average Induction, U85267 Homo sapiens down syndrome candidate region 1 (DSCR1) gene [4]: 2.0 fold
